Source: patent US20170151204A1 (priority 2011, published 2017)
“Also recorded” adds a separate entry of the source.

Experiments:
human neutrophils [1] = assay: TLR9 protein expression by human neutrophils (flow cytometry); format: cell-based
Procedure: (§1) In FIG. 4A, cells were left untreated (dotted line) or were stimulated with LTB4 (100 nM) for 15, 30, 60 or 120 min. Background cellular autofluorescence is represented by shaded histogram. Cells were then fixed in paraformaldehyde, permeabilized in methanol, and TLR9 expression was assessed by flow cytometry. In FIG. 4B, cells were pre-treated for 30 min with the high affinity LTB4 receptor antagonist U75302 (10 μM) prior to stimulation with LTB4 for 60 min. Cells were then fixed in paraformaldehyde, permeabilized in methanol, and TLR9 expression was assessed by flow cytometry. In FIGS. 4C-D, cells were stimulated with LTB4 or leukotrienes C4 (LTC4), leukotriene D4 (LTD4), the complement protein C5a or IL-8 for 60 min. Cells were then fixed in paraformaldehyde, permeabilized in methanol, and TLR9 expression was assessed by flow cytometry. In FIG. 4E, neutrophils were pretreated with LTB4 for 60 min. Following this pretreatment, neutrophils were incubated in the presence of CpG-ODN 2216 sequence (5′-G*G*GGGACGATCGTCG*G* G*G*G*G*-3′) (SEQ ID NO:1) that were tagged with cyanine-3 (Cy3) fluorochrome. After an incubation for 4 h with Cy3-CpG-ODN sequences, neutrophils were extensively washed with phosphate buffer and Cy3 expression (corresponding to the degree in CpG-ODN binding on human neutrophils) was assessed by flow cytometry. […]. […]

[2] = system: mouse embryogenic fibroblasts (MEF); format: cell-based; settings: uninfected MEF, 6 hours, NacMDP 0.1, 1 and 10 μg/ml, LTB4 100 nM (FIG. 37)
human neutrophils [3] = assay: TLR2 protein expression on human neutrophils (flow cytometry); format: cell-based; settings: LTB4 100 nM, 15-120 min, flow cytometry (FIG. 2)
Procedure: In FIG. 2A, cells were left untreated (1) or were stimulated with LTB4 (100 nM) for 15 (2), 30 (3), 60 (4) or 120 min (5). Cells were then fixed in paraformaldehyde and TLR2 expression was assessed by flow cytometry. Background cellular autofluorescence is represented by the dotted line (6).

human neutrophils [4] = assay: TLR mRNA expression by human neutrophils (RT-PCR); format: cell-based; settings: LTB4 100 nM or 1 μM, two hours
Procedure: Peripheral blood neutrophils or peripheral blood mononuclear cells were isolated from healthy donors and were purified by centrifugation over Ficoll™ separation medium gradient as already described (Larochelle B, Blood. 1998;92:291-299). Human neutrophils (2×10^6) were resuspended in culture medium and stimulated with a placebo solution (0.45% w/v NaCl containing 0.25% w/v dextrose, NS) or LTB4 (100 nM or 1 μM in placebo solution) for two hours. Following stimulation, total RNA was extracted and RT-PCR was performed using specific primers for human TLR2 (FIG. 1) and TLR7-9 (FIG. 3).

IAV-infected MEF = format: cell-based, mouse
[5] = system: Influenza A/PR/8/34 H1N1 (IAV); format: cell-based; settings: MEF, IAV 0.1 m.o.i., 24 hours, LTB4 100 nM, NacMDP 0.1 μg/ml (FIG. 39)
[6] = system: Influenza A/PR/8/34 H1N1 (IAV); assay: IAV-infected mice: lung viral load, IL-6 and histology; format: in vivo; settings: 50 pfu IAV intranasally; iv. daily for three days, LTB4 1 μg/kg, NacMDP 2 mg/kg; four days post-infection (FIG. 40)
Procedure: In FIG. 39, MEFs were generated and plated as described in Example VII. Cells were infected with IAV (0.1 m.o.i.) alone (−), LTB4 alone (100 nM) or with a combination of LTB4 and NacMDP (0.1 μg/ml) for 24 hours. Following infection, cell culture supernatants were harvested and assayed for viral load determination by standard plaque assay in MDCK cells. For in vivo assessment of the antiviral activity of LTB4 and NacMDP, 4-6 weeks old C57131/6 female mice (n=4/group) were infected intranasally (in.) with 50 plaque-forming units (pfu) of IAV (FIG. 40). Starting at day one post-infection, mice were treated daily for three days with either saline, LTB4 alone (1 μg/kg) or with a combination of LTB4 and NacMDP (2 mg/kg), via the intravenous (iv.) route. Four days post-infection, animals were sacrificed and viral loads were determined from triturated lungs by standard plaque assay in MDCK cells. […] In FIG. 39, * p≦0.05. […]
To further investigate the in vivo consequences associated with the treatment of IAV-infected mice with a combination of LTB4 and the NOD2 agonist NacMDP, 4-6 weeks old C57131/6 female mice (n=4/group) were infected as described in Example IX and treated with either saline or a combination of LTB4 and NacMDP also as described. In FIG. 41, four-day infected animals were sacrificed and IL-6 titers were determined from triturated lungs by ELISA. […]

RIG-I = assay: RIG-I-dependent promoter activation assay (luciferase) in BLT1-expressing HEK-293T cells; format: cell-based; settings: RIG-I-expressing vector
[7] = system: mouse embryonic fibroblasts (MEFs); assay: IFNβ secretion by wild type mouse embryonic fibroblasts; format: cell-based; settings: MEFs from wild type mice, LTB4 alone or with Sendai virus (FIG. 36)
IPS-1 = assay: IPS-1-dependent promoter activation assay (luciferase) in BLT1-expressing HEK-293T cells; format: cell-based; settings: IPS-1-expressing vector
human neutrophils [8] = assay: Cy3-CpG-ODN binding assay on human neutrophils (flow cytometry); format: cell-based; settings: LTB4 pretreatment 60 min, then Cy3-CpG-ODN 2216 for 4 h; with or without inhibitory CpG-ODN (FIG. 4E-F)
Procedure: as §1

Row | Compound | TLR9 expression compared to LTC4, LTD4, C5a and IL-8 (human neutrophils [1]; 60 min stimulation (FIG. 4C-D)) | TLR9 expression (protein) (human neutrophils [1]; LTB4 100 nM, 15, 30, 60 or 120 min, with or without BLT1 antagonist U75302 10 μM (FIG. 4A-B)) | IL-6 secretion [2] | TLR2 expression (protein) (human neutrophils [3]) | expression of TLR2 mRNA (human neutrophils [4]; RT-PCR (FIG. 1)) | mRNA expression of TLR7-9 (human neutrophils [4]; RT-PCR (FIG. 3)) | IL-6 secretion (IAV-infected MEF) | viral load (in vitro) [5] | viral load in lungs (in vivo) [6] | NF-κB promoter activity (luciferase) (RIG-I; LTB4 stimulation 24 h (FIG. 28)) | IFN-β promoter activity (luciferase) (RIG-I; LTB4 stimulation 24 h (FIG. 29)) | secretion of IFNβ [7] | NF-κB promoter activity (luciferase) (IPS-1; LTB4 stimulation 24 h (FIG. 30)) | IFN-β promoter activity (luciferase) (IPS-1; LTB4 stimulation 24 h (FIG. 31)) | CpG-ODN binding on human neutrophils (Cy3 expression) (human neutrophils [8])
1 | CCCCC/C=C\C[C@@H](O)/C=C/C=C/C=C\[C@@H](O)CCCC(=O)O [LTB4, 5S,12R-6,8,10,14(Z,E,E,Z)-eicosatetraenoic acid] | potent inducer of TLR9 expression | induces TLR9 expression on human neutrophils in a time-dependent manner; also recorded: upregulated TLR2 and TLR9 protein expression | do not induce significant IL-6 secretion compared to background | enhanced TLR2 expression; also recorded: upregulated TLR2 and TLR9 protein expression | stimulated by LTB4 in a dose-dependent form | stimulated in a dose-dependent form | significantly enhance IL-6 secretion | significant decrease in viral load | significant decrease in viral load | enhances NF-κB as well as IFN-β promoter activity | enhances NF-κB as well as IFN-β promoter activity | induces secretion of IFNβ | induces NF-κB as well as IFN-β promoter activity | induces NF-κB as well as IFN-β promoter activity | enhances CpG-ODN binding on human neutrophils in a TLR9-dependent manner
2 | CC(=O)N[C@H]1C(O)O[C@H](CO)[C@@H](O)[C@@H]1O[C@H](C)C(=O)N[C@@H](C)C(=O)N[C@H](CCC(=O)O)C(N)=O (some centres unmarked) [NacMDP, N-acetyl muramyl dipeptide, reference compound] |  |  | do not induce significant IL-6 secretion compared to background |  |  |  | significantly enhance IL-6 secretion |  |  |  |  |  |  |  | 
